This is an account of results in PMC12289626, “Aloin protects against UVB-induced apoptosis by modulating integrated signaling pathways” (Frontiers in Pharmacology, 2025).

For experiment [1], the target named is T1, p38α (Homo sapiens, UniProt Q16539).
T1 construct: gene MAPK14
The experiment in a line: ADP-Glo kinase assay with Promega p38α Kinase Enzyme System. Type of experiment: biochemical.

In experiment [2] the target is T2, JNK1 (Homo sapiens, UniProt P45983).
T2 construct: gene MAPK8
Kind of experiment: ADP-Glo kinase assay with Promega JNK1 Kinase Enzyme System. It is filed as biochemical.

Each structure is given as a SMILES string. pIC50: −log10 of the molar value.

T1 sequence (Q16539 2-360): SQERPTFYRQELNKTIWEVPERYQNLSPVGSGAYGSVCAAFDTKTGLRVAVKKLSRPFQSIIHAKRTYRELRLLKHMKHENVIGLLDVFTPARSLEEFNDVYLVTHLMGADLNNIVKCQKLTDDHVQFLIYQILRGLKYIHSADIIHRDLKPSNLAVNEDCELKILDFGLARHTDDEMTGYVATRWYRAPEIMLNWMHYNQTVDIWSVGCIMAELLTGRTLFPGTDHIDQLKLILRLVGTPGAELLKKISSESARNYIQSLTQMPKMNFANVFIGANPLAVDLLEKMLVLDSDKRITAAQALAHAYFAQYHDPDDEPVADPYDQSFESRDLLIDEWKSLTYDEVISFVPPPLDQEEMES
T2 sequence (P45983 whole entry): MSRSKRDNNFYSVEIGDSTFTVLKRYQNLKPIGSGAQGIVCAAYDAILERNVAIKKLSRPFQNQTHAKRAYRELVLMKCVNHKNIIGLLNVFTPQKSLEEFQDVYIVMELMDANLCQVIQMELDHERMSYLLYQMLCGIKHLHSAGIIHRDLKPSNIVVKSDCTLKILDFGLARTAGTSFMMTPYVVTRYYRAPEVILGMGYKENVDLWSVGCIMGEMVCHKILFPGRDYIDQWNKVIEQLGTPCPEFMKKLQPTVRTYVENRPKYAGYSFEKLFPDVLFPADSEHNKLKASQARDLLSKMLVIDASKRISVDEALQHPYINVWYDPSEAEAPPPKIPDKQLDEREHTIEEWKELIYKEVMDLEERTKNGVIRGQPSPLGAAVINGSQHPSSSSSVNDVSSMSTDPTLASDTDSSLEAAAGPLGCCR

As to `O=C1c2c(O)cccc2C([C@@H]2O[C@H](CO)[C@@H](O)[C@H](O)[C@H]2O)c2cc(CO)cc(O)c21` (some centres unmarked) [aloin], the pIC50 was 3.65 in experiment [1] and 2.41 in experiment [2].
